Assay results published in patent US12343335B2, “Pharmaceutical composition for treating multiple sclerosis on basis of AMPK inhibitory function and zinc homeostasis control function” (ZINCURE CORP., priority 2019, dated 2025).

Legend:
[1] = test system: cortical neurons of the cultured mice; assay: Zinc toxicity in cortical neurons, cell viability assay (Cell Counting Kit-8); format: cell-based, mouse; details: ZnCl2 400 μM for 10 minutes, compound 20 μM
Experimental: (§1) The mouse cortical neurons used in the present invention were extracted from the brain of a mouse embryo, and cultured in Dulbecco's modified Eagle's medium (DMEM, Gibco, Grand Island, NY, US) supplemented with 5% fetal bovine serum (FBS) and 5% horse serum (HS) under the condition of 95% humidity, 5% CO2 and 37° C. For activation and differentiation of the cells, the cells were grown to a density of 2×10^4 cells in a 24-well tissue culture plate and cultured in MEM medium without FBS and HS before treatment with zinc and compounds.
According to an embodiment of the present invention, based on the structural similarity of 1H10 of the present invention, 25 similar compounds having a similar structure were purchased from a compound library manufacturer (InterBioScreen, Russia; Akos, Germany). Then, in order to induce zinc toxicity in the cortical neurons of the cultured mice, ZnCl2 (400 μM) was treated for 10 minutes, and after 12.5 hours, the selected 25 compounds and the previously selected drug 1H10 were treated (20 μM) and it was determined whether cell death was inhibited through cell viability assay (Cell Counting Kit-8, Dojindo).

[2] = test system: mouse cortical neurons; assay: Apoptosis by etoposide (ETPS) in cortical neurons, LDH cytotoxicity; format: cell-based; details: etoposide 10 μM for 20 hours, compound 20 μM
Experimental: as §1
The present inventors investigated the inhibitory effect against neuronal cell death of the eight drugs and 1H10 of the above examples. Specifically, neurotoxicity due to apoptosis was induced by treatment with etoposide (ETPS, 10 μM) in mouse cortical neurons for 20 hours. Then, the selected 8 drugs and 1H10 were treated (20 μM) and LDH cytotoxicity was observed.

[3] = test system: mouse cortical neurons; assay: Oxidative stress by H2O2 in cortical neurons, LDH analysis; format: cell-based; details: H2O2 100 μM about 4 hours, compound 20 μM
Experimental: as §1
(§2) The present inventors investigated the inhibitory effect against oxidative stress in addition to zinc toxicity for the eight drugs and 1H10 of the above examples. Specifically, oxidative damage induced neurotoxicity by treating mouse cortical neurons with H2O2 (100 μM) and FeCl2 (100 μM) for about 4 hours and 20 hours, respectively, and treatment with the 8 selected drugs and 1H10 (20 μM). Thereafter, cytotoxicity was observed through LDH (Lactate Dehydrogenase) analysis.

[4] = test system: mouse cortical neurons; assay: Excitotoxicity by NMDA in cortical neurons; format: cell-based; details: NMDA 50 μM for 3 hours
Experimental: as §1
The present inventors investigated the inhibitory effect against excitotoxicity of the eight drugs and 1H10 of the above examples. Specifically, excitotoxicity was induced by treatment with NMDA (N-methyl-D-aspartate, 50 μM) in mouse cortical neurons for 3 hours.

[5] = test system: EAE; details: zinc chelator administrated to EAE animals; cited from earlier work
[6] = Zinc chelation in a test tube with FluoZin-3; format: binding; details: 1 μM zinc, 5 μM FluoZin-3, compared with 1H10
Experimental: The present inventors treated FluoZin-3, a substance illuminate fluorescence if it bind to free zinc to cultivated neurons in order to verify the possibility of zinc chelation according to the treatment of 1H10 {(Z)-5-((1H-indol-3-yl)methylene)-2-((3-hydroxyphenyl)amino)thiazol-4(5H)-one} according to an embodiment of the present invention, and then measured cytosolic zinc level in the neurons for 60 min after exposing zinc (300 μM) for 15 minutes and removing the zinc. In addition, 20 μM zinc (ZnCl2) and NewPort Green DCF fluorophore, which emits fluorescence when it bind to zinc, were added to the test tube, and 1H10 of the present invention was treated at various concentrations. Clioquinol, a zinc chelator, and calcium ionophore Phosphorus ionomycin was used as controls.
In addition, after reacting various concentrations of (0, 0.5, 1, 2, 5, 10, 20, 40 μM) 1H10 or clioquinol with 1 μM zinc and 5 μM fluorescent labeled drug for free zinc (FluoZin-3) in a test tube and fluorescence values were measured. […] 1H10 of the present invention binds zinc even at a lower concentration than clioquinol, but at a high concentration, zinc binding strength is considered to be lower than that of clioquinol (FIG. 5B).

[7] = test system: mouse cortical neuron culture; assay: Intrinsic toxicity in cortical neuron culture, LDH cytotoxicity; format: cell-based; details: 40 μM; for intrinsic toxicity in words: 48 hours of drug treatment
Experimental: as §1
Specifically, 40 μM of each of the drugs was treated in a mouse cortical neuron culture, and LDH cytotoxicity was observed after 24 or 48 hours.

[8] = test system: mouse cortical neurons; assay: Oxidative damage by iron (FeCl2) in cortical neurons, LDH analysis; format: cell-based; details: FeCl2 100 μM about 20 hours, compound 20 μM
Experimental: as §1, §2

SMILES | neuroprotective effect against zinc toxicity (cell viability) [1] | inhibitory effect against ETPS toxicity (LDH) [2] | inhibition of H2O2 toxicity (LDH) [3] | inhibition of excitotoxicity caused by NMDA [4] | T cell infiltration that cause encephalitis [5] | demyelination and microglia activity in EAE [5] | final FluoZin-3 fluorescence value [6] | intrinsic toxicity in words [7] | intrinsic toxicity compared with 1H10 ([7]; 24 or 48 hours (time not specified)) | inhibition of oxidative damage caused by iron (LDH) [8]
O=C1N=C(Nc2ccccc2C(=O)O)S/C1=C/c1c[nH]c2ccccc12 [4C06, (E)-2-((5-((1H-indol-3-yl)methylene)-4-oxo-4,5-dihydrothiazol-2-yl)amino)benzoic acid] | neuroprotective effect | significant inhibitory effect |  |  |  |  |  |  |  | 
Cc1cccc(NC2=NC(=O)/C(=C/c3c[nH]c4ccccc34)S2)c1C [4B04, (5Z)-2-[(2,3-Dimethylphenyl)amino]-5-(1H-indol-3-ylmethylene)-1,3-thiazol-4(5H)-one] | neuroprotective effect |  | significantly inhibit |  |  |  |  |  |  | 
Cc1ccc(/N=C2/NC(=O)/C(=C\c3c(C)[nH]c4ccccc34)S2)cc1 [4C04, (2Z,5E)-5-((2-methyl-1H-indol-3-yl)methylene)-2-(p-tolylimino)thiazolidin-4-one] | neuroprotective effect |  | significantly inhibit | significantly inhibited |  |  |  |  |  | 
Oc1c(I)cc(Cl)c2cccnc12 [clioquinol] |  |  |  |  | inhibitored | reduced | lower |  |  | 
Cc1ccc(/N=C2\NC(=O)/C(=C/c3c(C)[nH]c4ccccc34)S2)cc1 [4C03, (2E,5Z)-5-((2-methyl-1H-indol-3-yl)methylene)-2-(p-tolylimino)thiazolidin-4-one] | neuroprotective effect |  | significantly inhibit | significantly inhibited |  |  |  |  |  | 
Cc1ccc(NC2=NC(=O)/C(=C/c3c[nH]c4ccccc34)S2)cc1C [4B01, (5Z)-2-[(3,4-Dimethylphenyl)amino]-5-(1H-indol-3-ylmethylene)-1,3-thiazol-4(5H)-one] | neuroprotective effect | significant inhibitory effect | significantly inhibit | significantly inhibited |  |  |  | stronger intrinsic toxicity than 1H10 |  | 
CCCCc1ccc(NC2=NC(=O)/C(=C/c3c[nH]c4ccccc34)S2)cc1 [4C01, (Z)-5-((1H-indol-3-yl)methylene)-2-((4-butylphenyl)amino)thiazol-4(5H)-one] | neuroprotective effect | significant inhibitory effect | significantly inhibit | significantly inhibited |  |  |  |  | insignificant difference from 1H10 | 
O=C1N=C(Nc2ccc(O)c(C(=O)O)c2)S/C1=C\c1c[nH]c2ccccc12 [4C08, (Z)-5-((5-((1H-indol-3-yl)methylene)-4-oxo-4,5-dihydrothiazol-2-yl)amino)-2-hydroxy benzoic acid] | neuroprotective effect | significant inhibitory effect |  | significantly inhibited |  |  |  | did not show intrinsic toxicity |  | inhibited
